From ChEMBL document CHEMBL1212789, “Activity and toxicity of farnesol towards Candida albicans are dependent on growth conditions” (Antimicrob Agents Chemother, 2010)
The source made the active and inactive calls. The calls are words filed in the database; no cut-off is given here.

Key:
Type in all cases: functional, organism-based
Candida albicans [1] = experiment: Antifungal activity against log phase culture of Candida albicans in GPP medium at 40 uM after 24 hrs by methylene blue assay
Candida albicans [2] = experiment: Antifungal activity against exponential phase culture of Candida albicans at 10 to 300 uM treated directly to growing cultures measured after 4 hrs by methylene blue assay
Candida albicans [3] = experiment: Antifungal activity against stationary phase culture of Candida albicans in GPP medium at 10 to 300 uM at 37 degC after 24 hrs by methylene blue assay
Candida albicans [4] = experiment: Antifungal activity against exponential phase culture of Candida albicans in YPD medium at 10 to 300 uM at 37 degC after 24 hrs by methylene blue assay
Candida albicans [5] = experiment: Antifungal activity against stationary phase culture of Candida albicans in YPD medium at 10 to 300 uM at 30 degC after 24 hrs by methylene blue assay
Candida albicans [6] = experiment: Antifungal activity against stationary phase culture of Candida albicans in YPD medium at 10 to 300 uM at 25 degC after 24 hrs by methylene blue assay
Candida albicans [7] = experiment: Antifungal activity against exponential phase culture of Candida albicans in YPD medium at 10 to 300 uM at 30 degC after 24 hrs by methylene blue assay
Candida albicans [8] = experiment: Antifungal activity against stationary phase culture of Candida albicans in GPP medium at 10 to 300 uM at 25 degC after 24 hrs by methylene blue assay
Candida albicans [9] = experiment: Antifungal activity against exponential phase culture of Candida albicans in GPP medium at 10 to 300 uM at 25 degC after 24 hrs by methylene blue assay
Candida albicans [10] = experiment: Antifungal activity against exponential phase culture of Candida albicans in GPP medium at 10 to 300 uM at 30 degC after 24 hrs by methylene blue assay
Candida albicans [11] = experiment: Antifungal activity against exponential phase culture of Candida albicans in YPD medium at 10 to 300 uM at 25 degC after 24 hrs by methylene blue assay
Candida albicans [12] = experiment: Antifungal activity against Candida albicans in YPD medium up to 300 uM after 24 hrs by methylene blue assay
Candida albicans [13] = experiment: Antifungal activity against exponential phase culture of Candida albicans in GPP medium at 10 to 300 uM at 37 degC after 24 hrs by methylene blue assay
Candida albicans [14] = experiment: Antifungal activity against log phase culture of Candida albicans in GPP medium at 300 uM after 4 hrs by methylene blue assay
Candida albicans [15] = experiment: Antifungal activity against stationary phase culture of Candida albicans in YPD medium at 10 to 300 uM at 37 degC after 24 hrs by methylene blue assay
Candida albicans [16] = experiment: Antifungal activity against stationary phase culture of Candida albicans in GPP medium at 10 to 300 uM at 30 degC after 24 hrs by methylene blue assay
Candida albicans [17] = experiment: Antifungal activity against log phase culture of Candida albicans at 10 to 300 uM treated directly to growing cultures measured after 4 hrs by methylene blue assay
Candida albicans [18] = experiment: Antifungal activity against exponential phase culture of Candida albicans in GPP medium at 40 uM after 24 hrs by methylene blue assay
Candida albicans [19] = experiment: Antifungal activity against stationary phase culture of Candida albicans in GPP medium up to 300 uM after 24 hrs by methylene blue assay
Candida albicans [20] = experiment: Antifungal activity against Candida albicans in YPD medium at => 300 uM after 24 hrs by methylene blue assay
Candida albicans [21] = experiment: Antifungal activity against log phase culture of Candida albicans in GPP medium at 100 uM after 1 hr by methylene blue assay

CC(C)=CCC/C(C)=C/CC/C(C)=C/CO
Activity (Candida albicans [1]): Active | Activity (Candida albicans [2]): Active | Activity (Candida albicans [3]): inactive | Activity (Candida albicans [4]): inactive | Activity (Candida albicans [5]): inactive | Activity (Candida albicans [6]): inactive | Activity (Candida albicans [7]): inactive | Activity (Candida albicans [8]): inactive | Activity (Candida albicans [9]): inactive | Activity (Candida albicans [10]): inactive | Activity (Candida albicans [11]): inactive | Activity (Candida albicans [12]): inactive | Activity (Candida albicans [13]): inactive | Activity (Candida albicans [14]): Active | Activity (Candida albicans [15]): inactive | Activity (Candida albicans [16]): inactive | Activity (Candida albicans [17]): Active | Activity (Candida albicans [18]): Active | Activity (Candida albicans [19]): inactive | Activity (Candida albicans [20]): Active | Activity (Candida albicans [21]): Active
